The values below come from patent publication US9487546B2, “Solid forms of tenofovir” (Gilead Sciences, Inc., priority 2014, dated 2016).

Common to all, as to assay type: physicochemical
Series [1] can be described thus: Thermogravimetric analysis (TGA) of Form I, dehydration. Conditions: under nitrogen purge, 10° C./min. The method, then: Thermogravimetric analysis (TGA) data was obtained using 2.01 mg PMPA Form I and was heated at a rate of 10° C./min over the range of 25 to 350° C. The solids lost about 6.1% water below 100° C., and the loss is very close to the theoretical water content of 5.9% for PMPA monohydrate.

Series [2] is described as follows: XRPD patterns during heating (70, 80, 90° C.), form transition. The settings on record: XRPD patterns at 70, 80, and 90° C. during the heating period.
Series [3] can be described thus: Storage of Form IV in a sealed vial, checked by XRPD. Conditions: kept in a sealed vial at ambient temperature. From the text: Form IV was obtained by keeping Form VI in water at ambient temperature for 3 weeks.

In the case of `C[C@H](Cn1cnc2c(N)ncnc21)OCP(=O)(O)O` [Form I, (R)-9-[2-(phosphonomethoxy)propyl]adenine], the “dehydration temperature (TGA)” value in series [1] is “about 50 °C”. Besides, the “transition from monohydrate (Form I) to an anhydrous form” value in series [2] is “around 80 °C”.

On to `C[C@H](Cn1cnc2c(N)ncnc21)OCP(=O)(O)O` [Form IV, (R)-9-[2-(phosphonomethoxy)propyl]adenine], for which the “change of sample by XRPD analysis on storage” value in series [3] is on record as “did not change”.
